What was measured:
[1] = system: fusion protein CX43-HaloTag; test: Tracing assembly of CX43-HaloTag intercellular channels in Hela cells (Example 94); assay type: cell-based; conditions: 2 μM probe, 1 hour, Hela-CX43-HaloTag cells
Excerpt: To verify that the probe can be used to monitor the assembly and degradation of biomacromolecules in mammalian cells in real time, Hela cells were used as an example to detect the process of tracing, by a probe, the assembly of intercellular protein CX43 to form intercellular channels in mammalian cells. The C-terminus of CX43 gene was fused with HaloTag gene, and a Hela cell line stably expressing the fusion protein CX43-HaloTag was constructed and obtained by lentiviral infection technology. Hela-CX43-HaloTag cell lines were implanted in a 20 mm glass-bottom cell culture dish 10 hours before the probe labeling. When labeling, the probe 61 μM was first diluted to 2 μM with phenol red-free DMEM medium and replaced the original cell culture medium. The cells were incubated in a 37° C. carbon dioxide incubator for 1 hour. Thereafter, the cells were washed twice with fresh phenol red-free DMEM medium, and the unbound probe 61 was removed at intervals of 2 min. Then, a DMEM phenol-free medium containing 1 μM probe 57 was added to label the cells, and a Leica SP8 confocal microscope was used to monitor the fluorescence intensity and position changes of labeled cells at the corresponding fluorescence channels of probe 61 and probe 57 for a long time, which are shown in FIGS. 17A and 17B, respectively. […]

[2] = system: Hela cells stably expressing HaloTag protein tags; test: Confocal imaging of labeled Hela cells stably expressing HaloTag protein tags (Example 89); assay type: cell-based; conditions: Homo sapiens, 5 μM probe, 2 hours, 37° C., confocal microscope, read-out: fluorescence signal enhancement in Hela cells expressing the protein tag
Description: (§1) Hela cells are used as an example to test the labeling effect of compounds in mammalian cells. Hela cells and Hela-WT cells (Hela primitive cell, without a protein tag expressed) stably expressing HaloTag protein tags were planted in 14 mm 96-well glass bottom cell culture plates and stabilized for 10 hours. Probe 57, probe 59, probe 60, probe 61, probe 69, probe 75, probe 76, probe 82 were added to the culture medium and diluted to 5 μM, respectively. The cells were incubated in a 37° C. carbon dioxide incubator for 2 hours, and the fluorescence changes of the labeled cells were detected by imaging with a Leica TPS-8 confocal microscope.

[3] = Quantum yield of free probe not reacted with protein tag; assay type: physicochemical
Description: (§2) A probe was mixed with a corresponding HaloTag protein tag to obtain a mixed sample. The final concentration of the probe in the mixed sample was 5 μM and the final concentration of the protein tag was 10 μM. The mixed sample was incubated at 37° C. for 1 hour, and the sample was detected using a fluorescence spectrophotometer.

[4] = system: HaloTag-IAA17-H2B protein; test: Fluorescence change on IAA-induced degradation of HaloTag-IAA17-H2B in Hela cells (Example 93); assay type: cell-based; conditions: 1 μM probe, 1 hour labeling, then IAA-induced protein degradation
Description: In order to verify the correlation between the fluorescent activation of the probe and the presence of protein, the HaloTag protein in mammalian cells was taken as an example, and the AID degradation system in Hela cells was used as an example to detect the fluorescence changes of HaloTag protein binding probes after protein degradation. First, Hela cells were implanted 20,000/cm^2 in a 20 mm glass-bottomed cell culture dish. After 14 hours, pcdna3.1-TIR1 and pcdna3.1-HaloTag-IAA17-H2B plasmids were transfected with lipofectmain2000 transfection reagent from invirtogen. 24 hours after cell transfection, the original cell culture medium was replaced with a phenol red-free DMEM medium containing 1 μM probe 61 to label the cells, and the cell samples were incubated in a 37° C. carbon dioxide incubator for 1 hour. After the labeling was completed, the fluorescence signal of cell labels was detected by imaging using a Leica SP8 laser confocal microscope. Then, indole acetic acid (IAA) was added to induce the degradation of HaloTag-IAA17-H2B protein, and the changes in cell fluorescence during protein degradation were detected. […] When proteins are present, fluorescence is activated, and when proteins are degraded, fluorescence disappears, which can be used to track and monitor the degradation process of target proteins.

HaloTag protein tag = test: Probe mixed with HaloTag protein tag, fluorescence spectrophotometer (Example 86); assay type: biochemical; conditions: 5 μM probe, 10 μM protein tag, 37° C., 1 hour
Description: as §2

[5] = Viscosity responsiveness: fluorescence intensity in glycerol versus methanol; assay type: physicochemical; conditions: fluorescence intensity in glycerol to that in methanol
How it was run: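 At 25 °C, with the same dye concentration and excitation wavelength, maximum emission intensity in glycerol was compared with intensity in methanol, giving a ratio. Dye concentrations ranged from 1×10^−7 M to 1×10^−5 M.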

Hela-WT cells = test: Confocal imaging of Hela-WT cells without protein tag (Example 89); assay type: cell-based; conditions: 5 μM probe, 2 hours, 37° C., confocal microscope
Description: as §1

[6] = system: HaloTag protein tags in different subcellular organelles of Hela cells; test: Labeling HaloTag protein tags in different subcellular organelles of Hela cells (Example 90); assay type: cell-based; conditions: 0.2 μM probe, 2 hours, no washing; cytoskeleton, mitochondria, nucleus, Golgi, whole cells, lysosomes
Description: In order to verify that probe 57, probe 59, probe 60, probe 61, probe 62, and probe 63 can be used to label target proteins located in different organelles. Hela cells were used as examples to detect the effect of probes on labeling HaloTag protein tags in different subcellular organelles. Hela cells were implanted 5000 cells per well in 96-well glass-bottom cell culture plates. After 14 hours, lipo2000 kit was used to transfect the plasmids localized by HaloTag protein tags in different organelles. The original culture medium was removed 24 hours after transfection, and the cells were washed twice with a phenol red-free DMEM medium, and incubated for 2 hours in a phenol red-free medium containing 0.2 μM probes, and the effect of cell labelling was detected by imaging using a Leica TCS-8 confocal microscope.

CN(C)c1cc2sc(/C=C(\C#N)C(=O)NCCOCCOCCCCCCCl)cc2s1 [Probe 61]
fluorescent signal in the probe 61 fluorescence channel [1]: long column-shaped specific fluorescent signal between the two cells | fold induction at 5 µM [2]: ~200 | The quantum yield of the free probe [3]: 0.0012 | fluorescence signal after indoleacetic acid added for 90 min [4]: almost invisible | The quantum yield after binding to Halo-tag (HaloTag protein tag): 0.59 | Fluorescence enhancement (HaloTag protein tag; fluorescence activation multiple after binding protein tag): 668 | Emission/nm (HaloTag protein tag; fluorescence emission wavelength): 552 nm | ratio [5]: 817 | fluorescent signal in Hela-WT cells (Hela-WT cells): no corresponding fluorescent signal could be detected | effect of cell labelling of subcellular organelles [6]: clearly display a variety of subcellular organelle structures without washing
